Assay [1] deals with cucumber gray mold fungus (Botrytis cinerea). The experiment in a line: Preventive test against gray mold on cucumber cotyledon leaves, spray treatment, preventive value and Colby expected value (Test Examples 1-4). Conditions: single compound; for pest or weed control at 100 ppm / pest or weed control at 3 ppm / pest or weed control at 10 ppm / pest or weed control at 50 ppm / pest or weed control at 5 ppm / pest or weed control at 35 ppm / pest or weed control at 8 ppm / pest or weed control at 25 ppm: Botrytis cinerea, 72 h; for pest or weed control at 3 ppm: 3 ppm spray; for pest or weed control at 35 ppm: 35 ppm spray; for pest or weed control at 8 ppm: 8 ppm spray; for pest or weed control at 25 ppm: 25 ppm spray. The class given is in vivo. The protocol:
Using the following compound listed in Table 2 (the active ingredient A) and the compound listed in Table 5 through Table 15 (active ingredient B), an agent was prepared in accordance with the above Formulation Example. This agent was diluted with water to a predetermined concentration to obtain a test solution. Then, cucumber (variety: Sagami-hanjiro) was planted in a plastic pot of 90 cm^3, and in the cotyledon stage, 5 ml of the obtained test solution, was sprayed by a spray gun and air-dried. Thereafter, the treated leaf was cut off and placed in a plastic container which filled approximately 0.5 cm in depth water. A suspension of conidia of cucumber gray mold fungus (Botrytis cinerea) and a dissolved PDA culture medium were mixed at a ratio of 1:1 (mass ratio), and the mixture was dropped to inoculate the treated leaf with 30 μl. After the inoculation, the plastic container was sealed and left at 20° C. for 3 days, the ratio of the formed lesion occupying the inoculated leaf was measured, and the preventive value was calculated in accordance with the following calculation formula. Preventive value=[1−(treated plot lesion area ratio/untreated plot lesion area ratio)]×100
Further, from the preventive value at each agent concentration, synergy was calculated by using the Colby method (Colby S. R. 1976, Weeds 15, 20-22). The calculation method is as follows. E=X+Y−XY/100
X: preventive value of A agent at x concentration
Y: preventive value of B agent at y concentration
E: theoretical value expected by treatment of the mixture of A agent and B agent.
The obtained result is analyzed to be synergy if the observed value is larger than the expected value, to be antagonism if the expected value is larger than the observed value, and to be an additive effect if the observed value and the expected value are the same.
Using the following compound listed in Table 2 (active ingredient A) and the following compound listed in Table 5 through Table 15 (active ingredient B) as active ingredients, a preventive test against gray mold was conducted in accordance with the method described in Test Example 1.
Using the following compound listed in Table 2 (active ingredient A) and the following compound listed in Table 5 or Table 6 (active ingredient B) as active ingredients, a preventive test against gray mold was conducted in accordance with the method described in Test Example 1.
Using the following compound listed in Table 2 (active ingredient A) and the following compound listed in Table 6 through Table 16 (active ingredient B) as active ingredients, a preventive test against gray mold was conducted in accordance with the method described in Test Example 1.

In assay [2] the test system is wheat glume blotch (Leptosphaeria nodorum). The experiment in a line: Efficacy test on wheat glume blotch, spray treatment and prevention test (Test Example 8). The class given is in vivo. The following applies: spray, lesion area ratio. The protocol: An agent comprising the following compound listed in Table 2 (active ingredient A) and the following compound listed in Table 6, Table 11 or Table 15 (active ingredient B) as active ingredients, was prepared in accordance with the above Formulation Example. This agent was diluted with water to a predetermined concentration to obtain a test solution. Then, to seedlings of wheat (variety: Haruyutaka) at the 1-leaf stage, seeded in a pot with a diameter of 7 cm, with 5 seeds per pot, and grown for 7 days, the test solution was applied by a spray gun in an amount of 5 ml per pot, for treatment. One day after the treatment, a spore suspension (1×100,000 cfu/ml) of wheat glume blotch (Leptosphaeria nodorum) was spray-inoculated, and the pot was placed in a moist chamber set in temperature of 20° C. and humidity more than 95% RH for 48 hours. After placing the pot in a glass greenhouse for 7 days, the ratio of the formed lesion area occupying the inoculated leaves was measured, and the preventive value was calculated in accordance with the following formula. Preventive value=[1−(treated plot lesion area ratio/untreated plot lesion area ratio)]×100
Further, from the preventive value for each agent concentration, synergy was calculated by using the Colby method (Colby S. R. 1976, Weeds 15, 20-22).

The mark [3] stands for this setting: Test Example 4, 100 ppm spray, read-out: Preventive value.
Where [4] appears, read: Test Example 1, read-out: Preventive value.
[5] abbreviates: Test Example 2, read-out: Preventive value.
[6] abbreviates: Test Example 4, 50 ppm spray, read-out: Preventive value.
[7] abbreviates: Test Example 4, 10 ppm spray, read-out: Preventive value.

Like-named read-outs stand apart in the source and are kept apart here.

As for `Cn1cc(C(=O)Nc2cccc3c2[C@@H]2CC[C@H]3C2=C(Cl)Cl)c(C(F)F)n1` (racemic) [C01, benzovindiflupyr], in assay [1] (Test Example 3, 5 ppm spray), the Preventive value was found to be 60.

Turning to `C[C@@]1(c2ccc(Oc3ccccc3)cc2)OC(=O)N(Nc2ccccc2)C1=O` (racemic) [C23, famoxadone], in assay [1] (setting [3]), the pest or weed control at 100 ppm stood at 35%.

`Fc1ccc([C@]2(Cn3cncn3)O[C@H]2c2ccccc2Cl)cc1` (racemic) [Compound No. H10, epoxiconazole]: the Preventive value in assay [1] (Test Example 1, 10 ppm spray) was 60; in assay [1] (Test Example 2, 10 ppm spray) it was 50; in assay [2] (single compound 1 ppm), 50.

Consider `CCCCNC(=O)n1c(NC(=O)OC)nc2ccccc21` [B01, benomyl], for which the pest or weed control at 3 ppm in assay [1] (setting [4]) worked out at 50%; in assay [1] (setting [5]) it was 45%.

Consider `COC(=O)NC(=S)Nc1ccccc1NC(=S)NC(=O)OC` [B05, thiophanate-methyl], for which the pest or weed control at 10 ppm in assay [1] (Test Example 3, 10 ppm spray, read-out: Preventive value) was 60%.

Regarding `CCOc1ccc(NC(=O)OC(C)C)cc1OCC` [B06, diethofencarb], the pest or weed control at 50 ppm in assay [1] (read-out: Preventive value, Test Example 3, 50 ppm spray) turned out to be 45%.

`Cn1cc(C(=O)Nc2ccc(F)cc2-c2ccc(Cl)c(Cl)c2)c(C(F)F)n1` [C02, bixafen]: in assay [1] (Test Example 3, 50 ppm spray), the Preventive value was determined as 70.

On to `O=C(Nc1ccccc1-c1ccc(Cl)cc1)c1cccnc1Cl` [C03, boscalid], for which the pest or weed control at 3 ppm in assay [1] (setting [4]) amounted to 60%; in assay [1] (setting [5]) it was 58%.

As to `O=C(NCCc1ncc(C(F)(F)F)cc1Cl)c1ccccc1C(F)(F)F` [C06, fluopyram], the pest or weed control at 5 ppm in assay [1] (Test Example 3, 5 ppm spray) was determined as 63%.

Consider `CC(C)Oc1cccc(NC(=O)c2ccccc2C(F)(F)F)c1` [C07, flutolanil], for which the pest or weed control at 100 ppm in assay [1] (Test Example 3, 100 ppm spray, read-out: Preventive value) came out at 50%.

Consider `Cn1cc(C(=O)Nc2ccccc2-c2cc(F)c(F)c(F)c2)c(C(F)F)n1` [C08, fluxapyroxad], for which the Preventive value in assay [1] (Test Example 3, 1 ppm spray) is listed as 65.

Turning to `Cc1nn(C)c(Cl)c1C(=O)Nc1cccc2c1C(C)OC2(C)C` (stereo not shown) [C09, furametpyr], the Preventive value in assay [1] (Test Example 3, 100 ppm spray) came to 55.

For the compound `Cc1cc(OC(C)C)ccc1C(=O)C(C)(C)NC(=O)c1sccc1C` [C10, isofetamid], in assay [1] (Test Example 3, 5 ppm spray), the Preventive value amounted to 45.

`Cc1ccccc1C(=O)Nc1cccc(OC(C)C)c1` [C12, mepronil]: the pest or weed control at 10 ppm in assay [1] (read-out: Preventive value, Test Example 3, 10 ppm spray) was 60%.

With `Cc1nn(C)c(F)c1C(=O)Nc1ccccc1C(C)CC(C)C` (stereo not shown) [C14, penflufen], the Preventive value in assay [1] (Test Example 3, 100 ppm spray) was found to be 65.

With `CC(C)CC(C)c1sccc1NC(=O)c1cn(C)nc1C(F)(F)F` (stereo not shown) [C15, penthiopyrad], the pest or weed control at 5 ppm in assay [1] (Test Example 3, 5 ppm spray) was 60%.

With `Cn1cc(C(=O)Nc2ccccc2C2CC2C2CC2)c(C(F)F)n1` (stereo not shown) [C16, sedaxane], in assay [1] (Test Example 3, 10 ppm spray), the Preventive value is listed as 50.

In the case of `CO/N=C(/C(=O)OC)c1ccccc1COc1ccccc1C` [C28, kresoxim-methyl], the pest or weed control at 10 ppm in assay [1] (Test Example 1, 10 ppm spray, read-out: Preventive value) worked out at 45%; in assay [1] (Test Example 2, 10 ppm spray, read-out: Preventive value), 56%. In addition, in assay [2] (Parastagonospora nodorum, single compound 5 ppm, read-out: Preventive value), the pest or weed control at 5 ppm was found to be 45%.

For the compound `CNC(=O)/C(=N/OC)c1ccccc1CO/N=C(C)/C(=N/OC)C(/C)=N/OC` [C31, orysastrobin], in assay [1] (Test Example 4, 50 ppm spray), the Preventive value is recorded as 40.

For `O=[N+]([O-])c1cc(C(F)(F)F)c(Cl)c([N+](=O)[O-])c1Nc1ncc(C(F)(F)F)cc1Cl` [C43, fluazinam], the pest or weed control at 50 ppm in assay [1] (setting [6]) was 45%.

Regarding `N#Cc1c[nH]cc1-c1cccc2c1OC(F)(F)O2` [Compound No. E04, fludioxonil], the pest or weed control at 3 ppm is 60% in assay [1] (read-out: Preventive value, Test Example 1) and 58% in assay [1] (read-out: Preventive value, Test Example 2).

With `CC(C)NC(=O)N1CC(=O)N(c2cc(Cl)cc(Cl)c2)C1=O` [Compound No. F01, iprodione], the pest or weed control at 35 ppm in assay [1] (Test Example 1) was determined as 50%; in assay [1] (Test Example 2), 48%.

Turning to `Cc1cc(C2CC2)nc(Nc2ccccc2)n1` [D1, cyprodinil], in assay [1] (setting [6]), the pest or weed control at 50 ppm is 50%.

Take `CC#Cc1cc(C)nc(Nc2ccccc2)n1` [D2, mepanipyrim]: the results for the pest or weed control at 8 ppm in assay [1] (Test Example 1) and in assay [1] (Test Example 2) were 55% and 56%, respectively.

On to `Fc1ccc(Oc2ccnc3cc(Cl)cc(Cl)c23)cc1` [E02, quinoxyfen], for which, in assay [1] (setting [3]), the pest or weed control at 100 ppm amounted to 5%.

`CC12CC1(C)C(=O)N(c1cc(Cl)cc(Cl)c1)C2=O` (stereo not shown) [F02, procymidone]: in assay [1] (setting [7]), the pest or weed control at 10 ppm amounted to 55%.

As for `COc1cc(Cl)c(OC)cc1Cl` [G06, chloroneb], the pest or weed control at 100 ppm in assay [1] (read-out: Preventive value, Test Example 4, 100 ppm spray) came out at 35%.

In the case of `CC(C1CC1)C(O)(Cn1cncn1)c1ccc(Cl)cc1` (stereo not shown) [H05, cyproconazole], the pest or weed control at 10 ppm in assay [1] (setting [7]) worked out at 45%.

For `CC1COC(Cn2cncn2)(c2ccc(Oc3ccc(Cl)cc3)cc2Cl)O1` (stereo not shown) [H07, difenoconazole], the pest or weed control at 10 ppm in assay [1] (setting [7]) amounted to 50%.

For the compound `OC(c1ccc(Cl)cc1)(c1cncnc1)c1ccccc1Cl` (stereo not shown) [H12, fenarimol], in assay [1] (setting [7]), the pest or weed control at 10 ppm is 55%.

Take `O=c1c2cc(F)ccc2nc(-n2cncn2)n1-c1ccc(Cl)cc1Cl` [H15, fluquinconazole]: the pest or weed control at 10 ppm in assay [1] (setting [7]) was determined as 55%.

In the case of `C[Si](Cn1cncn1)(c1ccc(F)cc1)c1ccc(F)cc1` [H16, flusilazole], in assay [1] (setting [7]), the pest or weed control at 10 ppm came to 50%.

Consider `OC(Cn1cncn1)(c1ccc(F)cc1)c1ccccc1F` (stereo not shown) [H17, flutriafol], for which, in assay [1] (setting [7]), the pest or weed control at 10 ppm came out at 45%.

On to `CCCC(Cn1cncn1)c1ccc(Cl)cc1Cl` (stereo not shown) [H28, penconazole], for which the pest or weed control at 10 ppm in assay [1] (setting [7]) is 45%.

For `FC(F)C(F)(F)OCC(Cn1cncn1)c1ccc(Cl)cc1Cl` (stereo not shown) [H36, tetraconazole], the pest or weed control at 10 ppm in assay [1] (setting [7]) stood at 55%.

As to `CC(Cc1ccc(C(C)(C)C)cc1)CN1CCCCC1` (stereo not shown) [H44, fenpropidin], the pest or weed control at 100 ppm in assay [1] (setting [3]) is 35%.

For `CC(Cc1ccc(C(C)(C)C)cc1)CN1C[C@@H](C)O[C@@H](C)C1` (stereo partly shown) [H45, fenpropimorph], the pest or weed control at 100 ppm in assay [1] (setting [3]) was 10%.

For `CC1(C(=O)Nc2ccc(O)c(Cl)c2Cl)CCCCC1` [H49, fenhexamid], the pest or weed control at 25 ppm in assay [1] (Test Example 1) worked out at 30%; in assay [1] (Test Example 2), 25%.

Turning to `O=C1c2ccccc2C(=O)N1SC(Cl)(Cl)Cl` [L24, folpet], the pest or weed control at 100 ppm in assay [1] (setting [3]) amounted to 45%.

On to `O=C(Cc1ccccc1)N/C(=N\OCC1CC1)c1c(C(F)(F)F)ccc(F)c1F` [M01, cyflufenamid], for which, in assay [1] (setting [3]), the pest or weed control at 100 ppm worked out at 15%.

As for `COc1cc(C)c(C(=O)c2c(OC)ccc(Br)c2C)c(OC)c1OC` [M09, metrafenone], the pest or weed control at 100 ppm in assay [1] (setting [3]) came out at 5%.

With mancozeb [L16], the Preventive value in assay [1] (Test Example 4, 100 ppm spray) amounted to 45.

Source of the values: US9974305B2, “Fungicidal or bactericidal composition, and method for controlling diseases” (NISSAN CHEMICAL INDUSTRIES, LTD., priority 2014, dated 2018).
